Reference: PubChem BioAssay AID1259407 (Chemical Carcinogenesis Research Information System (CCRIS), 2018)
Active and inactive are the calls of the source. No rule for the calls is given here.

Tested on: CCRIS mutagenicity, Ames/micronucleus/aberration tests
Test: CCRIS mutagenicity studies
Conditions: Test System: AMES SALMONELLA TYPHIMURIUM
[1] = Strain/Indicator: TA98, Metabolic Activation: NONE, Method: STANDARD PLATE
[2] = Strain/Indicator: TA98, Metabolic Activation: RAT, LIVER, S-9, AROCLOR 1254, Method: STANDARD PLATE
[3] = Strain/Indicator: TA100, Metabolic Activation: NONE, Method: STANDARD PLATE
[4] = Strain/Indicator: TA100, Metabolic Activation: RAT, LIVER, S-9, AROCLOR 1254, Method: STANDARD PLATE
[5] = Strain/Indicator: TA1535, Metabolic Activation: NONE, Method: STANDARD PLATE
[6] = Strain/Indicator: TA1535, Metabolic Activation: RAT, LIVER, S-9, AROCLOR 1254, Method: STANDARD PLATE
[7] = Strain/Indicator: TA1537, Metabolic Activation: NONE, Method: STANDARD PLATE
[8] = Strain/Indicator: TA1537, Metabolic Activation: RAT, LIVER, S-9, AROCLOR 1254, Method: STANDARD PLATE
[9] = Strain/Indicator: TA1538, Metabolic Activation: NONE, Method: STANDARD PLATE
[10] = Strain/Indicator: TA1538, Metabolic Activation: RAT, LIVER, S-9, AROCLOR 1254, Method: STANDARD PLATE

With OCCNc1ccc(N=Nc2ccc(NCCO)cc2)cc1 the mutagenic call (Strain/Indicator: TA98, Metabolic Activation: HAMSTER, LIVER, S-9, AROCLOR 1254, Method: STANDARD PLATE) was “active; positive”, the mutagenic call [1] was “inactive; negative” and the mutagenic call (Strain/Indicator: TA98, Metabolic Activation: RAT, LIVER, S-9, AROCLOR 1254, Method: PREINCUBATION) was “active; positive”. For the same molecule, the mutagenic call [2] was “active; positive”, the mutagenic call [3] was “inactive; negative” and the mutagenic call [4] was “inactive; negative”. The mutagenic call [5] was “inactive; negative”, the mutagenic call [6] was “inactive; negative” and the mutagenic call [7] was “inactive; negative”. For the same molecule, the mutagenic call [8] was “inactive; negative”, the mutagenic call [9] was “inactive; negative” and the mutagenic call [10] was “active; positive”.

In the case of O=c1oc2cc([N+](=O)[O-])ccc2c2ccccc12, the mutagenic call (Strain/Indicator: TA98(1,8-DNP6), Metabolic Activation: NONE, Method: MICROSUSPENSION) is reported as “active; positive”, the mutagenic call (Strain/Indicator: TA98(1,8-DNP6), Metabolic Activation: NONE, Method: PREINCUBATION) is reported as “active; positive” and the mutagenic call (Strain/Indicator: TA98(1,8-DNP6), Metabolic Activation: NONE, Method: STANDARD PLATE) is reported as “active; positive”. The mutagenic call (Strain/Indicator: TA98(NR), Metabolic Activation: NONE, Method: MICROSUSPENSION) was “active; positive”, the mutagenic call (Strain/Indicator: TA98(NR), Metabolic Activation: NONE, Method: PREINCUBATION) was “active; positive” and the mutagenic call (Strain/Indicator: TA98(NR), Metabolic Activation: NONE, Method: STANDARD PLATE) was “active; positive”. For the same molecule, the mutagenic call (Strain/Indicator: TA98(NR), Metabolic Activation: RAT LIVER S-9 (15%), Method: PREINCUBATION) was “active; positive”, the mutagenic call (Strain/Indicator: TA98(NR), Metabolic Activation: RAT LIVER S-9, 3-METHYLCHOLANTHRENE, Method: PREINCUBATION) was “active; positive” and the mutagenic call (Strain/Indicator: TA98(NR), Metabolic Activation: RAT LIVER S-9, BETA-NAPHTHOFLAVONE (15%), Method: PREINCUBATION) was “active; positive”. The mutagenic call (Strain/Indicator: TA98(NR), Metabolic Activation: RAT LIVER S-9, PCB (15%), Method: PREINCUBATION) was “active; positive”, the mutagenic call (Strain/Indicator: TA98(NR), Metabolic Activation: RAT LIVER S-9, PHENOBARBITAL (15%), Method: PREINCUBATION) was “active; positive” and the mutagenic call (Strain/Indicator: TA98(NR), Metabolic Activation: RAT, LIVER, S-9, AROCLOR 1254, Method: STANDARD PLATE) was “active; positive”. The mutagenic call (Strain/Indicator: TA98, Metabolic Activation: NONE, Method: MICROSUSPENSION) was “active; positive”, the mutagenic call (Strain/Indicator: TA98, Metabolic Activation: NONE, Method: PREINCUBATION) was “active; positive” and the mutagenic call [1] was “active; positive”. For the same molecule, the mutagenic call (Strain/Indicator: TA98, Metabolic Activation: RAT, LIVER, S-9, AROCLOR 1254, Method: MICROSUSPENSION) was “active; positive”, the mutagenic call [2] was “active; positive” and the mutagenic call (Strain/Indicator: TA100, Metabolic Activation: NONE, Method: MICROSUSPENSION) was “active; positive”. The mutagenic call (Strain/Indicator: TA100, Metabolic Activation: NONE, Method: PREINCUBATION) was “active; positive”, the mutagenic call [3] was “active; positive” and the mutagenic call (Strain/Indicator: TA100, Metabolic Activation: RAT LIVER S-9, 3-METHYLCHOLANTHRENE (15%), Method: PREINCUBATION) was “active; positive”. For the same molecule, the mutagenic call (Strain/Indicator: TA100, Metabolic Activation: RAT, LIVER, S-9, AROCLOR 1254, Method: MICROSUSPENSION) was “active; positive”, the mutagenic call [4] was “active; positive” and the mutagenic call [5] was “active; positive”. For the same molecule, the mutagenic call [6] was “active; positive”, the mutagenic call [7] was “active; positive” and the mutagenic call [8] was “active; positive”. For the same molecule, the mutagenic call [9] was “active; positive”, the mutagenic call [10] was “active; positive” and the mutagenic call (Strain/Indicator: TA7001, Metabolic Activation: NONE, Method: PREINCUBATION) was “inactive; negative”. For the same molecule, the mutagenic call (Strain/Indicator: TA7001, Metabolic Activation: RAT LIVER S-9, 3-METHYLCHOLANTHRENE (15%), Method: PREINCUBATION) was “inactive; negative”, the mutagenic call (Strain/Indicator: TA7002, Metabolic Activation: NONE, Method: PREINCUBATION) was “active; positive” and the mutagenic call (Strain/Indicator: TA7002, Metabolic Activation: RAT LIVER S-9, 3-METHYLCHOLANTHRENE, Method: PREINCUBATION) was “active; positive”. The mutagenic call (Strain/Indicator: TA7003, Metabolic Activation: NONE, Method: PREINCUBATION) was “inactive; negative”, the mutagenic call (Strain/Indicator: TA7003, Metabolic Activation: RAT LIVER S-9, 3-METHYLCHOLANTHRENE, Method: PREINCUBATION) was “inactive; negative” and the mutagenic call (Strain/Indicator: TA7004, Metabolic Activation: NONE, Method: PREINCUBATION) was “active; positive”. The mutagenic call (Strain/Indicator: TA7004, Metabolic Activation: RAT LIVER S-9, 3-METHYLCHOLANTHRENE, Method: PREINCUBATION) was “active; positive”, the mutagenic call (Strain/Indicator: TA7005, Metabolic Activation: NONE, Method: PREINCUBATION) was “active; positive” and the mutagenic call (Strain/Indicator: TA7005, Metabolic Activation: RAT LIVER S-9, 3-METHYLCHOLANTHRENE, Method: PREINCUBATION) was “active; positive”. For the same molecule, the mutagenic call (Strain/Indicator: TA7006, Metabolic Activation: NONE, Method: PREINCUBATION) was “active; positive” and the mutagenic call (Strain/Indicator: TA7006, Metabolic Activation: RAT LIVER S-9, 3-METHYLCHOLANTHRENE, Method: PREINCUBATION) was “active; positive”.
